# Test results as given in ChEMBL document CHEMBL5046253, “Synthesis and bioevaluation of diaryl urea derivatives as potential antitumor agents for the treatment of human colorectal cancer” (Eur J Med Chem, 2022).
# Experiments:
# [1] = target: Phosphatidylinositol 4,5-bisphosphate 3-kinase catalytic subunit alpha isoform (Homo sapiens, UniProt P42336); test: Inhibition of PI3Kalpha (unknown origin) using PIP2 as substrate in presence of ATP incubated for 60 mins by ADP-glo based luminescence assay
# Chain of Phosphatidylinositol 4,5-bisphosphate 3-kinase catalytic subunit alpha isoform (P42336 whole entry, canonical isoform): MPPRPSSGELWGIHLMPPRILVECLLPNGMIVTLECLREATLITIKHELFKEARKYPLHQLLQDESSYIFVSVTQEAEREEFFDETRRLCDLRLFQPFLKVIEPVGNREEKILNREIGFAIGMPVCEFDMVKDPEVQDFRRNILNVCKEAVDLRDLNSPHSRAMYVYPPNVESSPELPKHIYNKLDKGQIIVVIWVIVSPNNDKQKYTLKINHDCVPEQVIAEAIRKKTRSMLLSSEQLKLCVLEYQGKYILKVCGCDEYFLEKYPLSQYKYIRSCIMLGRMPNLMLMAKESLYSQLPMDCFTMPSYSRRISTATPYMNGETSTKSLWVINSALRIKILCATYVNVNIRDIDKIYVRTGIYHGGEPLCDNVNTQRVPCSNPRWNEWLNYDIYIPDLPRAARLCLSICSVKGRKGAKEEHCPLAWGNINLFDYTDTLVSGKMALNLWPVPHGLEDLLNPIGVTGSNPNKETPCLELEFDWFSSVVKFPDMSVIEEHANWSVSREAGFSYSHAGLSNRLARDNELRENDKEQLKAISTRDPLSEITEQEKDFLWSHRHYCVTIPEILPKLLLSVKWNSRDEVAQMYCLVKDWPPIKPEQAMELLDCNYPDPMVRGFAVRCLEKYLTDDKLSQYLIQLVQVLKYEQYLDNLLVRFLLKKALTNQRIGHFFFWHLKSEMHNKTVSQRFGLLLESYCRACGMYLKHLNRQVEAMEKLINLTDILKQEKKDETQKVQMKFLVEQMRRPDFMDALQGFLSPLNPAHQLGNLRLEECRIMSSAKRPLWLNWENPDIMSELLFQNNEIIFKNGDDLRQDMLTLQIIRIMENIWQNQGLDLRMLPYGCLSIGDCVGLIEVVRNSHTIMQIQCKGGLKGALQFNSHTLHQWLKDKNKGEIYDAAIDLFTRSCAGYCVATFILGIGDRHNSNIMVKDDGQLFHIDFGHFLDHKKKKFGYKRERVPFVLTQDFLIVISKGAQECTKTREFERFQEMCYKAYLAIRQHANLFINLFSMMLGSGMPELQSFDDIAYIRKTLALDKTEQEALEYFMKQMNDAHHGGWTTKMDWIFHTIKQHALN
# [2] = target: Serine/threonine-protein kinase mTOR (Homo sapiens, UniProt P42345); test: Inhibition of mTOR (unknown origin) using U-Light-4E-BP1 peptide as a substrate in presence of ATP incubated for 45 mins by Lance ultra assay
# MDA-MB-231 = test: Antiproliferative activity against human MDA-MB-231 cells assessed as reduction in cell viability incubated for 48 hrs by MTT assay; format: functional, cell-based; conditions: MDA-MB-231, 48 h
# HeLa = test: Antiproliferative activity against human HeLa cells assessed as reduction in cell viability incubated for 48 hrs by MTT assay; format: functional, cell-based
# CNE-2 = test: Antiproliferative activity against human CNE-2 cells assessed as reduction in cell viability incubated for 48 hrs by MTT assay; format: functional, cell-based; conditions: CNE-2, 48 h
# HCT-116 = test: Antiproliferative activity against human HCT-116 cells assessed as reduction in cell viability incubated for 48 hrs by MTT assay; format: functional, cell-based; conditions: HCT-116, 48 h
# MCF7 = test: Antiproliferative activity against human MCF7 cells assessed as reduction in cell viability incubated for 48 hrs by MTT assay; format: functional, cell-based; conditions: MCF7, 48 h
# HepG2 = test: Antiproliferative activity against human HepG2 cells assessed as reduction in cell viability incubated for 48 hrs by MTT assay; format: functional, cell-based; conditions: HepG2, 48 h
# A-431 = test: Antiproliferative activity against human A431 cells harboring wild type EGFR mutant assessed as reduction in cell viability incubated for 72 hrs by celltiter-glo assay; format: functional, cell-based; conditions: A-431, 72 h
# NCI-H1975 = test: Antiproliferative activity against human NCI-H1975 cells harboring EGFR L858R/T790M double mutant assessed as reduction in cell viability incubated for 72 hrs by celltiter-glo assay; format: functional, cell-based; conditions: NCI-H1975, 72 h
# BaF3 = test: Antiproliferative activity against mouse BaF3 cells harboring EGFR L858R/T790M/C797S mutant assessed as reduction in cell viability incubated for 72 hrs by celltiter-glo assay; format: toxicity, cell-based; conditions: BaF3, 72 h
# [3] = target: Phosphatidylinositol 4,5-bisphosphate 3-kinase catalytic subunit beta isoform (Homo sapiens, UniProt P42338); test: Inhibition of PI3Kbeta (unknown origin) using PIP2 as substrate in presence of ATP incubated for 60 mins by ADP-glo based luminescence assay
# Chain of Phosphatidylinositol 4,5-bisphosphate 3-kinase catalytic subunit beta isoform (P42338 whole entry, canonical isoform): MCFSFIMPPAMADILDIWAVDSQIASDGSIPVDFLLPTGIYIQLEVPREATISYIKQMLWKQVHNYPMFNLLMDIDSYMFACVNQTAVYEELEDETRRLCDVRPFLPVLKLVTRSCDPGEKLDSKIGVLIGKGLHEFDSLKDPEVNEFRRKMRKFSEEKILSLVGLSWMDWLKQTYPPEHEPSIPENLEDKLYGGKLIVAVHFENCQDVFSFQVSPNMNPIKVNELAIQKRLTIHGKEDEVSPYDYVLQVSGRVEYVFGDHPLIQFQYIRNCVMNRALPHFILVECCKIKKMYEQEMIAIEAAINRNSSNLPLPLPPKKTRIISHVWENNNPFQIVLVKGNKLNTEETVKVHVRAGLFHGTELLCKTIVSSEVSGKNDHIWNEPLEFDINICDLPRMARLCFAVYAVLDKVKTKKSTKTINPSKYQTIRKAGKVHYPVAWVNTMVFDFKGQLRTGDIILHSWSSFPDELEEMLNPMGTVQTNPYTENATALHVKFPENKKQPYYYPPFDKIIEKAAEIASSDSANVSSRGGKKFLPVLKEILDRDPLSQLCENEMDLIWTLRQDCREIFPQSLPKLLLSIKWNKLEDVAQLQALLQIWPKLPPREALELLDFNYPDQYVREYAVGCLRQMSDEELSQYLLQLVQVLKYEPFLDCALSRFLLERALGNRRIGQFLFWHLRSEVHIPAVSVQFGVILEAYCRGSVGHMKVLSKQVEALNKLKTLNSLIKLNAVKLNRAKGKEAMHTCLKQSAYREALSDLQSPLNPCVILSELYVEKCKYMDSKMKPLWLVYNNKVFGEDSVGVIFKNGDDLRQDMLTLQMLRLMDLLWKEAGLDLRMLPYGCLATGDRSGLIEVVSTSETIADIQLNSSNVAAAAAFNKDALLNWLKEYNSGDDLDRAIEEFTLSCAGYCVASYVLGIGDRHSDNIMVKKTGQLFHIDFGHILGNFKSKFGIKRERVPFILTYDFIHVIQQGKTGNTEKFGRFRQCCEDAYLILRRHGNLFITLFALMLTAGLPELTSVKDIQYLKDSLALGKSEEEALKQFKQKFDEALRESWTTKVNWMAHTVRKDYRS
# [4] = target: Phosphatidylinositol 4,5-bisphosphate 3-kinase catalytic subunit gamma isoform (Homo sapiens, UniProt P48736); test: Inhibition of PI3Kgamma (unknown origin) using PIP2 as substrate in presence of ATP incubated for 60 mins by ADP-glo based luminescence assay
# Chain of Phosphatidylinositol 4,5-bisphosphate 3-kinase catalytic subunit gamma isoform (P48736 whole entry, canonical isoform): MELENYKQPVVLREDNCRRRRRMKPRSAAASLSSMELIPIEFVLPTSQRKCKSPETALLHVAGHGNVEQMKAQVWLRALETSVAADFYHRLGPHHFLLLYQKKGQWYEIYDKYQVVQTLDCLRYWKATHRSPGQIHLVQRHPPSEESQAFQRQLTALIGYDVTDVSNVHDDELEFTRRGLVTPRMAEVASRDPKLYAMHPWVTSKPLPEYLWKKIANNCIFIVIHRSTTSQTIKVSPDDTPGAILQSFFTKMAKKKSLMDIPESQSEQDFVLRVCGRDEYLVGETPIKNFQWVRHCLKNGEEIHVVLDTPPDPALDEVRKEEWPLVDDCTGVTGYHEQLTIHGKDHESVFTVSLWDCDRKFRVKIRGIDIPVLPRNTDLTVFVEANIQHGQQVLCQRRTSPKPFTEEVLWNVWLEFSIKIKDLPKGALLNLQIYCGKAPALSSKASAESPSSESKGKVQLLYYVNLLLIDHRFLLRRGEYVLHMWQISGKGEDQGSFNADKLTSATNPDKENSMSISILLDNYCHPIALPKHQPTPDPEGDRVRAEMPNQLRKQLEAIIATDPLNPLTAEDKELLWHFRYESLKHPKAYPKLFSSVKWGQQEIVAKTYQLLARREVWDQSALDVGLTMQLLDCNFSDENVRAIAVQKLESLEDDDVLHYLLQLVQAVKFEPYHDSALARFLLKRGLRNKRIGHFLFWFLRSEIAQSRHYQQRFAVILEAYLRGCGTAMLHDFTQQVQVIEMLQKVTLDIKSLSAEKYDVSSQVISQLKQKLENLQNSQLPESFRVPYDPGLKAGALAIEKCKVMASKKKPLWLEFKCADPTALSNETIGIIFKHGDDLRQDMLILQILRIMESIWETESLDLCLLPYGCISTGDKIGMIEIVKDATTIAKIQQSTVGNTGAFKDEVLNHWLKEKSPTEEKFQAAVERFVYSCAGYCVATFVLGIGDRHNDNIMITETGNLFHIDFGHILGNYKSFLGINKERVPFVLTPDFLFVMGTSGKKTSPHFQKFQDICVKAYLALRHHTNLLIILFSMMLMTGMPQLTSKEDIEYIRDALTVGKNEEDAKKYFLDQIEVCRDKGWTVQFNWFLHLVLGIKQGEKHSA
# [5] = target: T1, Phosphatidylinositol 4,5-bisphosphate 3-kinase catalytic subunit delta isoform (Homo sapiens, UniProt O00329); test: Inhibition of PI3Kdelta (unknown origin) using PIP2 as substrate in presence of ATP incubated for 60 mins by ADP-glo based luminescence assay
# T1 sequence (O00329 whole entry): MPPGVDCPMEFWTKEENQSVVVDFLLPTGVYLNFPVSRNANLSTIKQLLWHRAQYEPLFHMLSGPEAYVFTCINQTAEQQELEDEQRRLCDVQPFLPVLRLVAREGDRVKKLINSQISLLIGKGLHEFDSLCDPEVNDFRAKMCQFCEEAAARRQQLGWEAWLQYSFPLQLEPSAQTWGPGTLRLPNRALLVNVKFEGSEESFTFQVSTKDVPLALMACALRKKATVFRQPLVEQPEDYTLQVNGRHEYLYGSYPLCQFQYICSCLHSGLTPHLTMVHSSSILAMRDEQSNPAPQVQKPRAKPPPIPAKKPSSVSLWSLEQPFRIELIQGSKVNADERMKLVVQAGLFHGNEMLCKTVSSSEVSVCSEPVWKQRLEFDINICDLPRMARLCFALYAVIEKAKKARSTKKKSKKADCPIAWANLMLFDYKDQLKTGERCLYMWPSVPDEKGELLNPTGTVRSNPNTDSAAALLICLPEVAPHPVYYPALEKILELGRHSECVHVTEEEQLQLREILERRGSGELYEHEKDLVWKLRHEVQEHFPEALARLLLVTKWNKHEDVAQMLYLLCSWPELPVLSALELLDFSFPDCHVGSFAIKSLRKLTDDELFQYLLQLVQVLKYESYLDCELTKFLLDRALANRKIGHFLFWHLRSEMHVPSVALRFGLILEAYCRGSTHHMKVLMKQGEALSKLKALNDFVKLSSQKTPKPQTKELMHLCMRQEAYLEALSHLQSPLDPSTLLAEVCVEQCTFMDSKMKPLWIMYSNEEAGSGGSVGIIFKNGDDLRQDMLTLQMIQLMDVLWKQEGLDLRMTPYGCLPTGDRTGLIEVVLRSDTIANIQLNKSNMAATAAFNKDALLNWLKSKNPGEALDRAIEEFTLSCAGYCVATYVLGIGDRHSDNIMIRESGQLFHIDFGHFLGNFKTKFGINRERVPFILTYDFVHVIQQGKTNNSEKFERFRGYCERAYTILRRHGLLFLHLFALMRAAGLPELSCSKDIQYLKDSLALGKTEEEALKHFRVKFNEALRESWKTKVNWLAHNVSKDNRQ
Compound,IC50 [1] [nM],IC50 [2] [nM],IC50 (MDA-MB-231) [µM],IC50 (HeLa) [µM],IC50 (CNE-2) [nM],IC50 (HCT-116) [nM],IC50 (MCF7) [µM],IC50 (HepG2) [µM],IC50 (A-431) [nM],IC50 (NCI-H1975) [nM],IC50 (BaF3) [nM],IC50 [3] [nM],IC50 [4] [nM],IC50 [5] [nM]
NC(=O)C1CCCN(C(=O)c2ccc(NC(=O)Nc3ccc(-c4nc(N5CCOCC5)nc(N5CCOCC5)n4)cc3)cc2)C1 (centres undefined),1.6,2.1,0.25,9.69,10200,740,2.29,0.13,242,601,294,,,
NC(=O)C1CCN(C(=O)c2ccc(NC(=O)Nc3ccc(-c4nc(N5CCOCC5)nc(N5CCOCC5)n4)cc3)cc2)CC1,0.7,1.9,0.9,1.39,4170,1510,3.81,0.51,585,2440,292,,,
CN(C)[C@H]1C[C@@H](C(N)=O)N(C(=O)c2ccc(NC(=O)Nc3ccc(-c4nc(N5CCOCC5)nc(N5CCOCC5)n4)cc3)cc2)C1,9.1,3.1,19.2,28.5,6670,2480,,18.7,,,,,,
C[C@H](NC(=O)c1ccc(NC(=O)Nc2ccc(-c3nc(N4CCOCC4)nc(N4CCOC[C@@H]4C)n3)cc2)cc1)C(N)=O,5,0.9,,,,,,,,,,47.1,34,44.1
C[C@H]1COCCN1c1ccnc(-c2ccc(NC(=O)Nc3ccc(C(=O)N4CCC[C@H]4C(N)=O)cc3)cc2)n1,28.7,9.2,,,,,,,,,,,,
NC(=O)[C@@H]1C[C@@H]2C[C@@H]2N1C(=O)c1ccc(NC(=O)Nc2ccc(-c3nc(N4CCOCC4)nc(N4CCOCC4)n3)cc2)cc1,1.9,2,9.89,15.6,9160,1960,10.5,,,,,,,
COC(=O)[C@@H]1CCCN1C(=O)c1ccc(NC(=O)Nc2ccc(-c3nc(N4CCOCC4)nc(N4CCOCC4)n3)cc2)cc1,19,4.2,10.4,9.71,3990,2700,9.03,10.4,,,,,,
CN(C)C1CCN(C(=O)c2ccc(NC(=O)Nc3ccc(-c4cc(N5CCOCC5)nc(N5CCOCC5)n4)cc3)cc2)CC1,31.8,6.2,7.57,4.74,1460,1610,9.28,,,,,,,
NC(=O)[C@@H]1CCCN1C(=O)c1ccc(NC(=O)Nc2ccc(-c3cc(N4CCOCC4)nc(N4CCOCC4)n3)cc2)cc1,13.8,7.4,11.3,13.5,1950,8040,7.89,24.2,,,,,,
CN(C)[C@@H]1C[C@@H](C(N)=O)N(C(=O)c2ccc(NC(=O)Nc3ccc(-c4nc(N5CCOCC5)nc(N5CCOCC5)n4)cc3)cc2)C1,7,2.2,14.6,12,7890,2510,,,2500,2880,3350,14.9,19.4,29.1
NC(=O)[C@@H]1CCCN1C(=O)Nc1ccc(-c2nccc(N3CCOCC3)n2)cc1,> 1000,10.3,,,,,,,,,,,,
CN(C)C1CCN(C(=O)c2ccc(NC(=O)Nc3ccc(-c4nc(N5CCOCC5)nc(N5C[C@@H]6OCCO[C@H]6C5)n4)cc3)cc2)CC1,10.2,4.8,1.92,7.94,290,1300,2.26,0.2,,,,,,
NC(=O)[C@@H]1CCCN1C(=O)c1ccc(NC(=O)Nc2ccc(-c3cc(N4CCOCC4)ncn3)cc2)cc1,> 1000,,,,,,,,,,,,,
C[C@@H]1COCCN1c1nc(-c2ccc(NC(=O)Nc3ccc(C(=O)N4CCC[C@H]4C(N)=O)cc3)cc2)nc(N2CCOCC2)n1,1.8,1,1.3,0.46,350,2190,3.5,1.03,,,,,,
NC(=O)[C@H]1CCCN1C(=O)c1ccc(NC(=O)Nc2ccc(-c3nc(N4CCOCC4)nc(N4CCOCC4)n3)cc2)cc1,0.6,2.3,7.35,10.4,180,290,10.4,,,,,3.2,7.4,13
C[C@H]1COCCN1c1nc(-c2ccc(NC(=O)Nc3ccc(C(=O)N4CCC(C(N)=O)CC4)cc3)cc2)nc(N2CCOCC2)n1,4.3,1.2,1.74,0.21,670,380,,0.54,,,,,,
NC(=O)[C@H]1CCCN1C(=O)c1ccc(NC(=O)Nc2ccc(-c3cc(N4CCOCC4)nc(N4CCOCC4)n3)cc2)cc1,5.7,7.3,16.4,6.98,3830,6130,,,,,,,,
NC(=O)C1CCCCN1C(=O)c1ccc(NC(=O)Nc2ccc(-c3nc(N4CCOCC4)nc(N4CCOCC4)n3)cc2)cc1 (centres undefined),1.6,3,5.64,10.3,1740,3780,,16.6,,,,,,
NC(=O)C1CCCN1C(=O)c1ccc(NC(=O)Nc2ccc(-c3nc(N4CCOCC4)nc(N4CCOCC4)n3)cc2)cc1 (centres undefined),0.6,1.4,6.78,8.6,520,200,4.85,,,,,,,
NC(=O)[C@@H]1CCCN1C(=O)c1ccc(NC(=O)Nc2ccc(-c3nc(N4CCOCC4)nc(N4C[C@@H]5OCCO[C@H]5C4)n3)cc2)cc1,4.3,5.7,0.62,0.56,950,780,,,,,,,,
CN(C)C1CCN(C(=O)c2cnc(Nc3ccc(-c4nc(N5CCOCC5)nc(N5CCOCC5)n4)cc3)nc2)CC1,> 1000,,,,,,,,,,,,,
NC(=O)[C@@H]1CCCN1C(=O)c1cnc(Nc2ccc(-c3nc(N4CCOCC4)nc(N4CCOCC4)n3)cc2)nc1,680,,,,,,,,,,,,,
O=C(Nc1ccc(C(=O)N2CCCC2C(=O)O)cc1)Nc1ccc(-c2nc(N3CCOCC3)nc(N3CCOCC3)n2)cc1 (centres undefined),11,3.7,29.1,11.7,2560,,7.15,,,,,,,
NC(=O)C1CCCCN1C(=O)c1ccc(NC(=O)Nc2ccc(-c3cc(N4CCOCC4)nc(N4CCOCC4)n3)cc2)cc1 (centres undefined),16.5,7.6,5.21,1.51,2000,2570,3.16,17.7,,,,,,
COC(=O)[C@@H]1C[C@@H](O)CN1C(=O)c1ccc(NC(=O)Nc2ccc(-c3nc(N4CCOCC4)nc(N4CCOCC4)n3)cc2)cc1,28.7,3.3,0.43,1.43,2680,310,0.7,8.82,,,,,,
